Measurements from patent US20260209250A1, “CRYSTAL FORM OF KRAS G12D INHIBITOR AND PREPARATION METHOD THEREFOR” (priority 2022, published 2026).

How the values were obtained:
Assay type in all cases: cell-based
AGS cells = assay: Inhibition of 3D proliferation of AGS cells; conditions: Homo sapiens, 120 h, CellTiter-Glo 3D
Description: (§1) The inhibitory effect of compound 1-p1 on the KRAS target was evaluated by assessing the inhibitory effect of compound 1-p1 on the 3D proliferation of GP2d and AGS cells.
(§2) AGS cells (Nanjing Cobioer, CBP60476) were cultured in a complete culture medium, namely an RPMI1640 culture medium (Hyclone, SH30809.01) containing 10% fetal bovine serum (Corning, 35-076-CV). On the first day of the experiment, the AGS cells were seeded into a 96-well low-adsorption plate (Corning, CLS7007-24EA) with a complete culture medium at a density of 1000 cells/well, with each well containing 90 μL of a cell suspension. The plate was centrifuged at 2000 rpm for 5 min at room temperature and then incubated overnight in a 5% CO2 cell incubator at 37° C.
(§3) The next day, the test compound, serially diluted in a complete culture medium, was added at 10 μL/well. The final concentrations of the compound for GP2d cells were 9 concentration points obtained by 3-fold serial dilution from 1 μM, and the final concentrations of the compound for AGS cells were 9 concentration points obtained by 3-fold serial dilution from 10 μM. A blank control containing 0.5% DMSO was set for both types of cells. […] The luminescence signal values were obtained using a multi-mode microplate reader (PerkinElmer, ENVISION).
(§4) The IC50 values for the inhibitory activity of the compound were calculated using Graphpad Prism software.

[1] = test system: ERK phosphorylation in AGS cells; assay: Inhibition of ERK phosphorylation in AGS cells (HTRF method); conditions: Homo sapiens, 1 h incubation, phosphorylated ERK/total ERK ratio
Description: In the experiment, the inhibitory effect of the compound on the KRAS target was evaluated by assessing the inhibitory effect of compound 1-p1 on ERK phosphorylation in cells and based on the IC50 value.
AGS cells (Nanjing Cobioer, CBP60476) were cultured in an RPMI1640 (Hyclone, SH30809.01) complete culture medium containing 10% fetal bovine serum. On the first day of the experiment, the AGS cells were seeded into a 96-well plate with a complete culture medium at a density of 40000 cells/well, with each well containing 190 μL of a cell suspension. The plate was incubated overnight in a 5% CO2 cell incubator at 37° C.
The next day, the test compound, serially diluted in a complete culture medium, was added at 10 μL/well. The final concentrations of the compound were 9 concentration points obtained by 5-fold serial dilution from 10 μM. A blank control containing 0.5% DMSO was set. The plate was incubated in a 5% CO2 cell incubator at 37° C. for 1 h. […]
On the third day, the fluorescence values at an excitation wavelength of 337 nm and emission wavelengths of 665 nm and 620 nm were obtained using an ENVISION multi-mode microplate reader (PerkinElmer, ENVISION).
The IC50 value for the inhibitory activity of the compound was calculated using Graphpad Prism software based on the compound concentration and the phosphorylated ERK/total ERK ratio.

GP2d cells = assay: Inhibition of 3D proliferation of GP2d cells; conditions: 120 h, CellTiter-Glo 3D
Description: as §1
as §2, with “GP2d” for “AGS”, “CBP60010)” for “CBP60476)”, “a DMEM/high glucose” for “an RPMI1640”, “SH30243.01)” for “SH30809.01)”
as §3, §4

CCc1c(F)ccc2cc(O)cc(-c3nc4c5c(nc(OC[C@@]67CCCN6C[C@H](F)C7)nc5c3F)N3C[C@H]5CC[C@H](N5)[C@H]3CO4)c12 [Compound 1-p1, 5-Ethyl-6-fluoro-4-((5aS,6S,9R)-1-fluoro-12-(((2R,7aS)-2-fluorotetrahydro-1H-pyrrolizin-7a(5H)-yl)methoxy)-5a,6,7,8,9,10-hexahydro-5H-4-oxa-3,10a,11,13,14-pentaaza-6,9-methanonaphtho[1,8-ab]heptalen-2-yl)naphthalen-2-ol]
IC50 (AGS cells): 5.8 nM
IC50 [1]: 0.4 nM
IC50 (GP2d cells): 0.9 nM
